According to patent publication US20230060174A1, “PHARMACEUTICAL COMPOSITION OF TRICYCLIC PDE3/PDE4 DUAL INHIBITOR COMPOUND” (CHIA TAI TIANQING PHARMACEUTICAL GROUP CO., LTD., priority 2020, published 2023):

Experiments:
CYP1A2 = target: T1, CYP1A2 (Homo sapiens, UniProt P05177); assay: Inhibition of human liver microsomal CYP1A2 (phenacetin probe); format: in vitro ADME; conditions: human liver microsomes
T1 construct: co-incubated with human liver microsomes; from tissue; host or cells: human liver microsomes
T1 sequence (P05177 1-516): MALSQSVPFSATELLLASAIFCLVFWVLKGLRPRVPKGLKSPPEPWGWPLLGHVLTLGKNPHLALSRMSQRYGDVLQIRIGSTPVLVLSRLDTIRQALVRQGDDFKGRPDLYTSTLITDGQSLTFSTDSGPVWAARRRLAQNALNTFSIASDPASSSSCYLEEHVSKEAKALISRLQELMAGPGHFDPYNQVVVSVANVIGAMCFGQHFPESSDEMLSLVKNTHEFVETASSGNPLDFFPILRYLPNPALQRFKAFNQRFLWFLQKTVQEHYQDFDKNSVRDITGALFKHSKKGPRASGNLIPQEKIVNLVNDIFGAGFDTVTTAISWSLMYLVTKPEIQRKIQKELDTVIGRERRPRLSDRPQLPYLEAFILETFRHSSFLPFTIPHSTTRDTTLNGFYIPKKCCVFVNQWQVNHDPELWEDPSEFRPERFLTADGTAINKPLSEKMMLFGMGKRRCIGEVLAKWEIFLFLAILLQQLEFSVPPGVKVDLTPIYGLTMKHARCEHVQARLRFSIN
Experimental: (§1) Experimental Example 6: Inhibitory effect on activity of isoenzymes (CYP1A2, CYP2C9, CYP2C19, CYP2D6 and CYP3A4) of human liver microsomal cytochrome P450 A total of 5 specific probe substrates of 5 isoenzymes of CYP, namely phenacetin (CYP1A2), diclofenac (CYP2C9), (S)-mephenytoin (CYP2C19), dextromethorphan (CYP2D6) and midazolam (CYP3A4) were each co-incubated with human liver microsomes and the compound of formula (I), and then reduced nicotinamide adenine dinucleotide phosphate (NADPH) was added to initiate the reaction. After the reaction was completed, the samples were treated, and the concentrations of 5 metabolites (acetaminophen, 4′-hydroxydiclofenac, 4′-hydroxymephenytoin, dextrorphan and l′-hydroxymidazolam) generated from the specific substrates were quantitatively detected by lC-MS/MS to calculate the correcnondino- half maximal inhibitory concentrationc (IC50)

recombinant human PDE3A = target: T2, recombinant human PDE3A (Homo sapiens, UniProt Q14432); assay: In vitro inhibitory activity against PDE 3A enzyme (fluorescence polarization); format: biochemical; conditions: 1 μM cAMP substrate
T2 construct: amino acid 669-end; GST (N); host or cells: Sf9 insect cells (baculovirus)
T2 sequence (Q14432 669-1141 limits assumed): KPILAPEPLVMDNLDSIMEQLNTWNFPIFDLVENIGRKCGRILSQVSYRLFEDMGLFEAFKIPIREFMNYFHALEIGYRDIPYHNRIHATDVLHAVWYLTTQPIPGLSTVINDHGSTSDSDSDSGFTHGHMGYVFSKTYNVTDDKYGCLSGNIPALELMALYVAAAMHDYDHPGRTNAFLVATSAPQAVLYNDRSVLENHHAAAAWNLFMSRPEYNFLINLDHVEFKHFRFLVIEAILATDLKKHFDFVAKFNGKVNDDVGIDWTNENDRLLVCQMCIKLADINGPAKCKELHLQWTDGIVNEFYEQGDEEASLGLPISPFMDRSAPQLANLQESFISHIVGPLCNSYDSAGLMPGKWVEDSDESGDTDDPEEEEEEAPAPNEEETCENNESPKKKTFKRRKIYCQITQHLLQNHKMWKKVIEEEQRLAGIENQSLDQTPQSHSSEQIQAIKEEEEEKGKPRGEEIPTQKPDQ
Experimental: Experimental Example 3: In vitro detection of the inhibitory activity of the compound against PDE 3A enzyme
Objective: to determine the AMP/GMP expression based on fluorescence polarization, i.e., to trace binding of AMP/GMP to antibody so as to indicate enzyme activity.
Buffer solution: 10 mM Tris—HCl (pH 7.5), 5 mM MgCl2, 0.01% Brij 35, 1 mM dithiothreitol (DTT), and 1% DMSO.
Enzyme: recombinant human PDE3A (Gene accession number: NM 000921; amino acid 669-end) was expressed by baculovirus in Sf9 insect cells using an N-terminal GST tag, with the molecular weight being 84 kDa.
Enzyme substrate: 1 μM cAMP Detection: TranscreenerOAMP2/GMP2 antibody and AMP2/GMP2 AlexaFluor633 tracer.
Procedures: • 1. The recombinant human PDE3A enzyme and enzyme substrate (μM cAMP) were each dissolved in newly prepared experimental buffer solution; • 2. […] The measurement range of fluorescence polarization was […]. • Data analysis: the fluorescence polarization signal was converted to nM based on AMP/GMP standard curve and the percentage enzyme activity relative to DMSO control calculated by Excel. […] The measurement range of fluorescence polarization was Ex/Em=620/688. • […]

CYP2D6 = target: T3, CYP2D6 (Homo sapiens, UniProt P10635); assay: Inhibition of human liver microsomal CYP2D6 (dextromethorphan probe); format: in vitro ADME; conditions: human liver microsomes
T3 construct: co-incubated with human liver microsomes; from tissue; host or cells: human liver microsomes
T3 sequence (P10635 whole entry): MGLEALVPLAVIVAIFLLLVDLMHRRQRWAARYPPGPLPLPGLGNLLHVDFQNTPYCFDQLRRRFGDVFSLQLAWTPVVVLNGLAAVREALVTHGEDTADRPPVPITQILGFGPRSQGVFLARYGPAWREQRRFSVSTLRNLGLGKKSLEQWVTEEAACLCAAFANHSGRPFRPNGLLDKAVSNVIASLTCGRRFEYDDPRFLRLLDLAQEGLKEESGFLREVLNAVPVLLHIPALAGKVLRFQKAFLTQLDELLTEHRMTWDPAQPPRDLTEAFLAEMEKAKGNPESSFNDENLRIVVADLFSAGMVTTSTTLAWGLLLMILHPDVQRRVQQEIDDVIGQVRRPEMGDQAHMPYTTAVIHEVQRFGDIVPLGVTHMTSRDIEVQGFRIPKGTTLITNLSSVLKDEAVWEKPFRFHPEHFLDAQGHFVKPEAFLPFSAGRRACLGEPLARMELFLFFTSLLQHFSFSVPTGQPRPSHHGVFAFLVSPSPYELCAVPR
Experimental: as §1

IC50 (CYP1A2): ≥ 50 µM | IC50 (recombinant human PDE3A): 0.03 nM | IC50 (CYP2D6): ≥ 50 µM
SMILES: CCOc1cc2c(cc1OC)-c1c/c(=N\c3c(C)cc(C)cc3C)n(CCNC(=O)c3c(O)nnn3C)c(=O)n1CC2 [Compound of formula (I)]
